Experimental data: a melting point compilation (Tetko et al.; mined from patent text by program, amines drawn as free bases though some values may be those of a salt)

SMILES	melting point [°C]
COC(=O)c1cc2ccc(OC)cc2c2c1C=CC(c1ccc(OC)cc1)(c1ccc(OC)cc1)O2	162 to 164
CC(CO)C(O)(Cn1cncn1)c1ccc(Cl)cc1Cl (single isomer, unassigned; (+))	110 to 111
CCOc1csc(C2OC(=O)NC2=O)c1 (stereo not given)	144 to 146
N#Cc1cc(F)c(N(CCO)CCO)c(F)c1	63 to 65
COC(=O)c1cc(-n2c(=O)c3c(n(C)c2=O)CCC3)c(F)cc1Cl	138 to 141
CC(O)Cc1cc([N+](=O)[O-])cc(N)c1N (stereo not given)	174
CCOC(=O)C(C(C)=O)=C(N)C(F)(F)F	63 to 65
O=C1CCC(O)C(C(c2ccccc2)c2ccccc2)N1 (stereo not given)	208
Cc1cc(NC(=O)C(C)(O)COc2ccc(CCF)cc2)ccc1[N+](=O)[O-] (stereo not given)	102 to 105
CC(=O)n1cc(-c2cccc(Cl)c2Cl)c(C(F)(F)F)c1	65 to 66
CC1=CC(c2ccccc2Cl)C(c2nnco2)=C(C)N1 (stereo not given)	192 to 194
CC(=O)C1=Cc2cc(Br)ccc2OC1	70
O=C1CN=C(c2cccc(Cl)c2)c2cc(C(=O)c3ccc(Cl)cc3)ccc2N1	265
CC(=O)OCC1OC(n2ccc(=O)[nH]c2=O)C(OC(C)=O)C1OC(C)=O (stereo not given)	129 to 130
O=C1CCSc2cc(Br)ccc21	55 to 57
CCCCCCCCCC[C@@H]1C(=O)OC(c2ccccc2)=C[C@@H]1C(=O)OC	108 to 111
COc1cc(-c2cccc(C=C3SC(N4CCOCC4)=NC3=O)c2)cc(C23CC4CC(CC(C4)C2)C3)c1	234 to 238
CCCCC=C1SC(=O)N(CCCCOc2cccn3ccnc23)C1=O	64 to 65
Cc1ccc(-c2c(C)ccn2-c2ccc(S(C)(=O)=O)cc2)cc1	158 to 160
CC1(C)CC(CN2CCNC2=N[N+](=O)[O-])CO1 (stereo not given)	119 to 120

SMILES	melting point [°C]
Cc1csc(CC(=O)O)c1	49
CSC(=NC(=O)COC(C)=O)N(C)N=Cc1ccccc1	115 to 117
CC(=O)Nc1n[nH]c(C(C)(C)C)c1Br	234 to 235
Cc1c(C)n(CC2CC2C)c2c(OCc3ccc(F)cc3)nncc12 (stereo not given)	114 to 115
C[C@@H](n1cnc2cc(-c3ccc(N)cc3)sc2c1=O)[C@](O)(Cn1cncn1)c1ccc(F)cc1F	184 to 186
NC(CO)c1ccc(-c2ccc(SC(F)F)cc2)cc1 (stereo not given)	108 to 110
COC(=O)C(C)(C)OCC#Cc1cc(Cl)ccc1NS(=O)(=O)c1ccc(C(C)C)cc1	65 to 67
COC(=O)C1(O)CN2CCC1CC2 (stereo not given)	122
CC(C)(C)NCC(O)COc1cc(N)ccc1-c1ccc(=O)[nH]n1 (stereo not given)	198 to 202
CCn1c(=O)c2[nH]c(/C=C/c3cccc(Cl)c3)nc2n(CC)c1=O	> 280
O=C1Nc2ccccc2NC2CCCC12 (stereo not given)	191 to 212
S=C(c1ccc(Br)cc1)N1CCOCC1	135 to 137
CC1C(=NO)SCC(=O)N1C (stereo not given)	205
O=c1[nH]c2cc([N+](=O)[O-])sc2[nH]c1=O	> 300
O=Cc1c2ccccc2cc2sccc12	113
Oc1cc(-c2c(F)c(F)c(F)c(F)c2F)nn1-c1ccccc1	149 to 151
C[C@]12C[C@H](c3ccc(OCCCCCS(=O)CCCC(F)(F)C(F)(F)F)cc3)[C@@H]3c4ccc(OC5CCCC5)cc4CC[C@H]3[C@@H]1CC[C@@H]2O (stereo not given in full)	189
CCc1noc(-c2cc3c4cc(S(=O)(=O)N(C)C)ccc4n(CCCCl)c3cn2)n1	223 to 224
CC(C)(C)OC(=O)N1C[C@@H]2[C@H](C1)C(F)(F)CCC2(c1ccccc1)c1ccccc1 (racemic)	162
COc1ccnc(CSc2nc3cc(OC(F)(F)F)ccc3[nH]2)c1	134 to 135

The next lines start with the values.

melting point [°C]	SMILES
185 to 186	O=C1NC(=O)c2ccccc2/C1=C/Nc1ccc(CN2CCCCC2)cc1
212 to 213	CCCCNC(=O)Nc1c(N)cccc1C(=O)NCC1CCN(C(c2ccccc2)c2ccccc2)CC1
150 to 152	CN(Cc1cc2c3c(c1)c(=O)c(C(=O)NCc1ccc(F)cc1)cn3CC(=O)N2C)C[C@@H](O)c1ccco1
137 to 138	CCCCCc1nc2c(N)nc3ccccc3c2n1CCCCNS(C)(=O)=O
163 to 165	Cc1ccc(S(=O)(=O)OCCCCCn2c3c(c4ccccc4c2=O)C(=O)c2ccccc2-3)cc1
191 to 193	Cc1cnc(CNC(=O)c2sc(N3CCN(Cc4ccc(F)cc4)C3=O)nc2C)cn1
171 to 173	O=C(NCc1ccc(F)cc1)c1ccnc(N2CCN(Cc3ccc(F)cc3F)C2=O)c1
190	Cc1cc(COc2ccc(C(=O)NC[C@@H](C(=O)NO)N3CCCCC3)cc2)c2ccccc2n1
80 to 86	Cc1occ2c1-c1ccccc1C(=C1CCN(C)CC1)c1ccccc1-2
178 to 180	C[C@]1(N2C(=O)c3cccc(OCc4ccc(CN5CCOCC5)cc4)c3C2=O)CCC(=O)NC1=O
201 to 202	N#CC1c2ccccc2C(Nc2ccc(Cl)cc2)=NN1C(=O)c1ccccc1 (stereo not given)
126 to 145	COc1cc2c(cc1Nc1ncc(Cl)c(N[C@H]3[C@@H](C(N)=O)[C@@H]4C=C[C@H]3C4)n1)CCN(CC(=O)N1CCCC1)CC2
255 to 256	CCn1nc2c(N)nc3ccccc3c2c1CO
107 to 108	CCOC(=O)C(C#N)=C(NCc1ccccc1)NCC1CN(Cc2ccc(F)cc2)CCO1 (stereo not given)
182 to 183	O=C(O)c1ccc(OCCCO/N=C/c2cn(Cc3ccccc3)c3ccccc23)cc1O
90 to 92	Nc1cc2c(cc1C(=O)c1ccccc1Cl)CCC2
117 to 119	CCOC(=O)Cc1ncn(C(c2ccccc2)(c2ccccc2)c2ccccc2)n1
117 to 118	ClCc1ccc(OCc2csc(-c3ccccc3)n2)nc1
146 to 147	CCOc1c(C(=O)O)oc2c3ccccc3n(-c3ccccc3)c12
206 to 209	O=C(O)Cc1c(C(=O)c2ccc(Cl)c(Cl)c2)[nH]c2cc(Cl)ccc12
132 to 134	Cc1cc(C)c(Nc2nc(C)ccc2S(=O)(=O)c2ccc(OCc3c(F)cccc3[N+](=O)[O-])cc2)c(C)c1
220 to 222	Cc1c(-c2ccccc2)oc2c(C(=O)O)cccc12
70 to 72	COc1ccc2oc(C(N)=O)c(OCc3ccccc3)c2c1
> 290	COC(=O)c1ccc(Cn2nc(O)c3[nH]c4cc(Cl)ccc4c(=O)c3c2=O)cc1
149 to 151	CC(=O)Oc1ccc2ncnc(Nc3ccc(OCc4ccccn4)c(C)c3)c2c1
170 to 171	CCCc1c(OCCCOc2ccc(Cl)c3ccccc23)ccc2c1OC(CCC(=O)O)(CCC(=O)O)CC2=O
140 to 141	CCOC(=O)c1cn(Cc2ccccc2)nc1OCc1ccc(OCc2nc(-c3ccco3)oc2C)nc1
135 to 140	Cc1nc(-c2ccc(CCN3CCN(c4nsc5ccccc45)CC3)cc2)cs1
150 to 153	COc1ccc(Cn2c(=O)cc(C)c3cnc(N4CCC[C@H]4CO)nc32)cc1Cl
256 to 258	Cn1cc(C2=C(c3cn(CCC(=O)O)c4ccccc34)C(=O)NC2=O)c2ccccc21
